According to patent US7816371B2, “Bicycloheteroaryl compounds as P2X7 modulators and uses thereof” (Renovis, Inc., priority 2006, dated 2010):

Biological target: T1, P2X7 receptor (Homo sapiens, UniProt Q99572)
T1 construct: host or cells: THP-1 cells differentiated with LPS and IFN-γ
T1 sequence (Q99572 1-595): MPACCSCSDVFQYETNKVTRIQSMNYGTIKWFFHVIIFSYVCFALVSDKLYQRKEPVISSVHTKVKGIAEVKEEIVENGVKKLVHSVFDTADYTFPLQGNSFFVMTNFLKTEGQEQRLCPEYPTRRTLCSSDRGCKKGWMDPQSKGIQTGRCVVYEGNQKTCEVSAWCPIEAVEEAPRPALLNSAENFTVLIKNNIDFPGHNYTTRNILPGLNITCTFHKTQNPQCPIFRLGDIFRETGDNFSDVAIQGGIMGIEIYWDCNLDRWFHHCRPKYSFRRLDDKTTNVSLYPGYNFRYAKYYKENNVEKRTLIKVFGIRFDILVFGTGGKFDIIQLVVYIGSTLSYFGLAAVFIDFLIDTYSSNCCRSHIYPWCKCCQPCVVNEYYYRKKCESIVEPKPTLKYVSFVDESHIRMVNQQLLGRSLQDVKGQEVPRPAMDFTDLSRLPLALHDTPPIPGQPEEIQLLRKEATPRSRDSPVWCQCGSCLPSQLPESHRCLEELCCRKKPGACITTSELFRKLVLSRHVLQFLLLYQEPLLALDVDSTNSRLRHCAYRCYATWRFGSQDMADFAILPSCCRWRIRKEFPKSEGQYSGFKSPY
Test: IL-1β release assay in differentiated THP-1 cells stimulated with BzATP (Example 9); % inhibition and IC50
Format: cell-based
Details: THP-1 cells differentiated with LPS and IFN-γ, 30 min pretreatment, BzATP 250 uM, IL-1β by ELISA
Procedure: The cells are then pretreated for 30 minutes with the compound of interest at the appropriate concentration in RPMI media containing 100 IU/mL penicillin, 100 ug/mL streptomycin. […] 30 uL of cell supernatant is then collected and IL-1β levels determined via ELISA (R&D systems Cat. # HSLB50) according to manufacturer's recommendations using the Tecan Safire plate reader. Background adjusted IL-1β levels of drug treated and non-treated cells are used to calculate the percent inhibition.
The compounds set forth in Table 1 were tested for activity in a cellular model as described herein.

Structure (SMILES) | IC50
C[C@@H](CO)n1ccc2c(NC(=O)Cc3ccc(F)c(Cl)c3)cccc2c1=O [Compound 331] | 163 nM
C[C@H](C(N)=O)n1ccc2c(NC(=O)Cc3cccc(OC(F)(F)F)c3)cccc2c1=O [Compound 313] | 713 nM
COc1ccc(C(=O)Nc2cccc3c(=O)n(C(CO)CO)ccc23)c(OC)c1 [Compound 5] | > 1000 nM
COc1cccc(CC(=O)Nc2cccc3c(=O)n(CCO)ccc23)c1 [Compound 75] | > 1000 nM
CC(C(=O)Nc1cccc2c(=O)n([C@H](CO)C(N)=O)ccc12)c1ccc(Cl)cc1 (stereo partly drawn) [Compound 252, (R)-2-{5-[2-(4-Chloro-phenyl)-propionylamino]-1-oxo-1H-isoquinolin-2-yl}-3-hydroxy-propionamide] | 161 nM
O=C(Cc1ccc(F)cc1)Nc1cccc2c(=O)n(CCO)ccc12 [Compound 73] | 532 nM
O=C(Cc1cc(C(F)(F)F)ccc1C(F)(F)F)Nc1cccc2c(=O)n(CCO)ccc12 [Compound 70] | 406 nM
O=C(Cc1ccccc1)Nc1cccc2c(=O)n(CCO)ccc12 [Compound 76] | > 1000 nM
C[C@H](C(=O)Nc1cccc2c(=O)n(C(C(N)=O)c3ccc(Cl)cc3)ccc12)c1ccc(Cl)cc1 (stereo partly drawn) [Compound 315, (S)—N-{2-[Carbamoyl-(4-chloro-phenyl)-methyl]-1-oxo-1,2-dihydro-isoquinolin-5-yl}-2-(4-chloro-phenyl)-propionamide] | 221 nM
CS(=O)(=O)c1ccc(CC(=O)Nc2cccc3c(=O)n(CCO)ccc23)cc1 [Compound 72] | > 1000 nM
CC(C)(CO)n1ccc2c(NC(=O)Cc3ccc(F)c(Cl)c3)cccc2c1=O [Compound 372] | 421 nM
C[C@@H](CO)n1ccc2c(NC(=O)Cc3ccc(Cl)c(F)c3)cccc2c1=O [Compound 334] | 202 nM
COc1ccc(OC)c(CC(=O)Nc2cccc3c(=O)n(CCO)ccc23)c1 [Compound 77] | > 1000 nM
O=C(Cc1ccc(C(F)(F)F)cc1)Nc1cccc2c(=O)n(CCO)ccc12 [Compound 7] | 289 nM
O=C(Cc1ccc(C(F)(F)F)cc1C(F)(F)F)Nc1cccc2c(=O)n(C(CO)CO)ccc12 [Compound 233] | 391 nM
CNCCn1ccc2c(NC(=O)Cc3ccc(Cl)c(Cl)c3)cccc2c1=O [Compound 234] | 144 nM
O=C(Cc1ccc(Cl)cc1C(F)(F)F)Nc1cccc2c(=O)n(C(CO)CO)ccc12 [Compound 228] | 212 nM
O=C(Cc1ccc(Cl)cc1)Nc1cccc2c(=O)n(CCO)ccc12 [Compound 4] | 317 nM
C[C@@H](C(N)=O)n1ccc2c(NC(=O)Cc3ccc(Cl)nc3)cccc2c1=O [Compound 310] | > 1000 nM
CC(C)[C@H](C(=O)O)n1ccc2c(NC(=O)[C@@H](C)c3ccc(Cl)cc3)cccc2c1=O [Compound 323, (R)-2-{5-[(S)-2-(4-Chloro-phenyl)-propionylamino]-1-oxo-1H-isoquinolin-2-yl}-3-methyl-butyric acid] | 320 nM
C[C@H](C(N)=O)n1ccc2c(NC(=O)Cc3cccc(C#N)c3)cccc2c1=O [Compound 288] | > 1000 nM
O=C(Nc1cccc2c(=O)n(CCO)ccc12)c1ccccc1 [Compound 1] | > 1000 nM
CC(C)(CO)n1ccc2c(NC(=O)Cc3ccc(C(F)(F)F)cc3C(F)(F)F)cccc2c1=O [Compound 366] | 789 nM
COc1ccc(CC(=O)Nc2cccc3c(=O)n(CCO)ccc23)cc1Br [Compound 66] | 110 nM

Stronger by IC50, values ahead:

IC50 | Structure (SMILES)
106 nM | CC(C)(CO)n1ccc2c(NC(=O)Cc3ccc(F)c(C(F)(F)F)c3)cccc2c1=O [Compound 367]
73.1 nM | C[C@H](C(N)=O)n1ccc2c(NC(=O)[C@H](C)c3ccc(Cl)cc3)cccc2c1=O [Compound 262]
70.6 nM | CNCCn1ccc2c(NC(=O)Cc3ccc(Cl)c(C(F)(F)F)c3)cccc2c1=O [Compound 235, 2-(4-Chloro-3-trifluoromethyl-phenyl)-N-[2-(2-methylamino-ethyl)-1-oxo-1,2-dihydro-isoquinolin-5-yl]-acetamide]
60.6 nM | CC(C)C[C@H](CO)n1ccc2c(NC(=O)[C@@H](C)c3ccc(Cl)cc3)cccc2c1=O [Compound 271]
57.3 nM | CC(C(=O)Nc1cccc2c(=O)n(CCO)ccc12)c1ccc(Cl)c(C(F)(F)F)c1 (stereo not drawn) [Compound 251]
52.6 nM | O=C(Cc1ccc(F)c(Cl)c1)Nc1cccc2c(=O)n(CCO)ccc12 [Compound 341]
49.8 nM | C[C@@H](CO)n1ccc2c(NC(=O)Cc3ccc(C(F)(F)F)c(F)c3)cccc2c1=O [Compound 336]
48.1 nM | C[C@@H](CO)n1ccc2c(NC(=O)Cc3ccc(F)c(C(F)(F)F)c3)cccc2c1=O [Compound 338]
46.5 nM | O=C(Cc1ccc(Cl)c(Cl)c1)Nc1cccc2c(=O)n(C[C@H]3CCCN3)ccc12 [Compound 245]
37.4 nM | CNC(=O)[C@@H](CO)n1ccc2c(NC(=O)C(C)c3ccc(Cl)c(Cl)c3)cccc2c1=O (stereo partly drawn) [Compound 270, (R)-2-{5-[2-(3,4-Dichloro-phenyl)-propionylamino]-1-oxo-1H-isoquinolin-2-yl}-3-hydroxy-N-methyl-propionamide]
36.3 nM | C[C@H](C(N)=O)n1ccc2c(NC(=O)Cc3cc(F)c(F)cc3F)cccc2c1=O [Compound 305]
35.8 nM | C[C@@H](C(N)=O)n1ccc2c(NC(=O)Cc3ccc(C(F)(F)F)cc3)cccc2c1=O [Compound 351]
34.4 nM | C[C@H](C(N)=O)n1ccc2c(NC(=O)Cc3ccc(Cl)cc3)cccc2c1=O [Compound 256]
33.8 nM | CC(C)[C@H](C(=O)NC1CC1)n1ccc2c(NC(=O)[C@H](C)c3ccc(Cl)cc3)cccc2c1=O [Compound 282]
32.2 nM | Cc1ccc(CC(=O)Nc2cccc3c(=O)n([C@H](C)C(N)=O)ccc23)cc1F [Compound 302]
31.2 nM | C[C@@H](C(N)=O)n1ccc2c(NC(=O)Cc3ccc(C(F)(F)F)c(F)c3)cccc2c1=O [Compound 347]
29.6 nM | C[C@@H](C(N)=O)n1ccc2c(NC(=O)Cc3ccc(Cl)c(C(F)(F)F)c3)cccc2c1=O [Compound 353]

IC50 | Structure (SMILES)
22.1 nM | C[C@H](CO)n1ccc2c(NC(=O)Cc3cccc(C(F)(F)F)c3F)cccc2c1=O [Compound 324]
20.8 nM | C[C@@H](C(N)=O)n1ccc2c(NC(=O)Cc3ccc(F)c(C(F)(F)F)c3)cccc2c1=O [Compound 348]
19.8 nM | CC(C)C[C@H](CO)n1ccc2c(NC(=O)Cc3ccc(Cl)c(Cl)c3)cccc2c1=O [Compound 275]
11.8 nM | CC(C(=O)Nc1cccc2c(=O)n([C@@H](C)C(N)=O)ccc12)c1ccc(Cl)cc1 (stereo partly drawn) [Compound 240]
10.8 nM | O=C(Cc1ccc(Cl)cc1Cl)Nc1cccc2c(=O)n(CCO)ccc12 [Compound 69]
9.92 nM | NCC(CCl)Cn1ccc2c(NC(=O)Cc3ccc(Cl)c(C(F)(F)F)c3)cccc2c1=O (stereo not drawn) [Compound 258, N-[2-(3-Amino-2-chloromethyl-propyl)-1-oxo-1,2-dihydro-isoquinolin-5-yl]-2-(4-chloro-3-trifluoromethyl-phenyl)-acetamide]
7.63 nM | C[C@H](C(N)=O)n1ccc2c(NC(=O)Cc3ccc(Cl)cc3F)cccc2c1=O [Compound 290]
6.91 nM | CC(C)[C@H](C(N)=O)n1ccc2c(NC(=O)[C@H](C)c3ccc(Cl)cc3)cccc2c1=O [Compound 284, (R)-2-{5-[(R)-2-(4-Chloro-phenyl)-propionylamino]-1-oxo-1H-isoquinolin-2-yl}-3-methyl-butyramide]
6.27 nM | C[C@@H](C(N)=O)n1ccc2c(NC(=O)Cc3ccc(Cl)cc3C(F)(F)F)cccc2c1=O [Compound 237, (S)-2-{5-[2-(4-Chloro-2-trifluoromethyl-phenyl)-acetylamino]-1-oxo-1H-isoquinolin-2-yl}-propionamide]
5.96 nM | C[C@H](C(N)=O)n1ccc2c(NC(=O)Cc3ccc(Cl)c(F)c3)cccc2c1=O [Compound 300]
5.54 nM | Cc1ccc2c(=O)n([C@H](C)CO)ccc2c1NC(=O)Cc1ccc(C(F)(F)F)cc1 [Compound 397]
4.05 nM | C[C@H](C(N)=O)n1ccc2c(NC(=O)Cc3ccc(Cl)c(Cl)c3)cccc2c1=O [Compound 239]
3.57 nM | C[C@H](C(N)=O)n1ccc2c(NC(=O)Cc3ccc(F)c(Cl)c3)cccc2c1=O [Compound 301]
1.26 nM | C[C@H](C(N)=O)n1ccc2c(NC(=O)Cc3ccc(Cl)c(C(F)(F)F)c3)cccc2c1=O [Compound 238, (R)-2-{5-[2-(4-Chloro-3-trifluoromethyl-phenyl)-acetylamino]-1-oxo-1H-isoquinolin-2-yl}-propionamide]
1.14 nM | C[C@H](CO)n1ccc2c(NC(=O)Cc3ccc(Cl)c(C(F)(F)F)c3)cccc2c1=O [Compound 362]
1.01 nM | C[C@H](CO)n1ccc2c(NC(=O)Cc3ccc(Cl)c(Cl)c3)cccc2c1=O [Compound 333, 2-(3,4-Dichloro-phenyl)-N-[2-((R)-2-hydroxy-1-methyl-ethyl)-1-oxo-1,2-dihydro-isoquinolin-5-yl]-acetamide]
